Reference: US20230203043A1, “NOVEL IMIDAZOPYRAZINE DERIVATIVES” (Hoffmann-La Roche Inc., priority 2020, published 2023)
Structures can show the parent of a compound that is named as a salt.

The molecules below were run on Acinetobacter baumannii ATCC17961 (assay: Antimicrobial susceptibility testing: 90% growth inhibitory concentration (IC90) determination in Iso-Sensitest broth, OD600 growth). Conditions: Acinetobacter baumannii, ATCC17961, 16 h, read-out: A. baumannii ATCC 17961 IC90 (uM), strain ATCC 17961, OD600 growth over 16 h.
Type: cell-based
Summary of the method: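 Growth inhibition is calculated during the logarithmic phase from OD600 readings taken every 20 minutes across 16 h at 35±2° C. Bacteria at ~5×10^(5) CFU/ml face twofold dilution series (e.g. 50 to 0.097 μM final).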

Compound | IC90 [µM]
C[C@@H](NC(=O)c1ccc(Nc2nccn3c(-c4c[nH]nc4C(F)(F)F)cnc23)cc1Cl)C(=O)NCCN [Example 95, N-[(2R)-1-(2-aminoethylamino)-1-oxopropan-2-yl]-2-chloro-4-[[3-[3-(trifluoromethyl)-1H-pyrazol-4-yl]imidazo[1,2-a]pyrazin-8-yl]amino]benzamide formate] | 1.53
C[C@@H](NC(=O)c1ccc(Nc2nccn3c(-c4c[nH]nc4C(F)(F)F)cnc23)cc1Cl)C(=O)N[C@H]1CCNC1 [Example 96, 2-chloro-N-[(2R)-1-oxo-1-[[(3S)-pyrrolidin-3-yl]amino]propan-2-yl]-4-[[3-[3-(trifluoromethyl)-1H-pyrazol-4-yl]imidazo[1,2-a]pyrazin-8-yl]amino]benzamide formate] | 1.63
C[C@@H](NC(=O)c1ccc(Nc2nccn3c(-c4c[nH]nc4C(F)(F)F)cnc23)cc1Cl)C(=O)N1CC[C@@H](N)C1 [Example 97, N-[(2R)-1-[(3R)-3-aminopyrrolidin-1-yl]-1-oxopropan-2-yl]-2-chloro-4-[[3-[3-(trifluoromethyl)-1H-pyrazol-4-yl]imidazo[1,2-a]pyrazin-8-yl]amino]benzamide formate] | 1.7
C[C@@H](NC(=O)c1ccc(Nc2nccn3c(-c4c[nH]nc4C(F)(F)F)cnc23)cc1Cl)C(=O)NCCN(C)C [Example 98, 2-chloro-N-[(2R)-1-[2-(dimethylamino)ethylamino]-1-oxopropan-2-yl]-4-[[3-[3-(trifluoromethyl)-1H-pyrazol-4-yl]imidazo[1,2-a]pyrazin-8-yl]amino]benzamide formate] | 1.94
C[C@@H](NC(=O)c1ccc(Nc2nccn3c(-c4c[nH]nc4C(F)(F)F)cnc23)cc1Cl)C(=O)N1CC(N)C1 [Example 99, N-[(2R)-1-(3-aminoazetidin-1-yl)-1-oxopropan-2-yl]-2-chloro-4-[[3-[3-(trifluoromethyl)-1H-pyrazol-4-yl]imidazo[1,2-a]pyrazin-8-yl]amino]benzamide formate] | 2.08
C#CCn1cc(-c2cnc3c(Nc4ccc(C(=O)NCC(=O)NCCN)c(Cl)c4)nccn23)c(C(F)(F)F)n1 [Example 116, N-[2-(2-aminoethylamino)-2-oxoethyl]-2-chloro-4-[[3-[1-prop-2-ynyl-3-(trifluoromethyl)pyrazol-4-yl]imidazo[1,2-a]pyrazin-8-yl]amino]benzamide formate] | 0.22
NCCNC(=O)CNC(=O)c1ccc(Nc2nccn3c(-c4cn(CC(F)F)nc4C(F)(F)F)cnc23)cc1Cl [Example 117, N-[2-(2-aminoethylamino)-2-oxoethyl]-2-chloro-4-[[3-[1-(2,2-difluoroethyl)-3-(trifluoromethyl)pyrazol-4-yl]imidazo[1,2-a]pyrazin-8-yl]amino]benzamide formate] | 0.338
Cc1cc(Cn2cc(-c3cnc4c(Nc5ccc(C(=O)N6CCNCC6)c(Cl)c5)nccn34)c(C(F)(F)F)n2)n[nH]1 [Example 118, [2-chloro-4-[[3-[1-[(5-methyl-1H-pyrazol-3-yl)methyl]-3-(trifluoromethyl)pyrazol-4-yl]imidazo[1,2-a]pyrazin-8-yl]amino]phenyl]-piperazin-1-ylmethanone formate] | 0.343
N#CCn1cc(-c2cnc3c(Nc4ccc(C(=O)NCC(=O)NCCN)c(Cl)c4)nccn23)c(C(F)(F)F)n1 [Example 119, N-[2-(2-aminoethylamino)-2-oxoethyl]-2-chloro-4-[[3-[1-(cyanomethyl)-3-(trifluoromethyl)pyrazol-4-yl]imidazo[1,2-a]pyrazin-8-yl]amino]benzamide formate] | 0.476

Same assay, conditions: Acinetobacter baumannii, ATCC17961, 16 h, strain ATCC 17961, OD600 growth over 16 h, read-out: A. baumannii ATCC 17961 IC90

Compound | IC90 [µM]
N#CCn1cc(-c2cnc3c(Nc4ccc(C(=O)N5CC(N)C5)c(Cl)c4)nccn23)c(C(F)(F)F)n1 [Example 100, 2-[4-[8-[4-(3-aminoazetidine-1-carbonyl)-3-chloroanilino]imidazo[1,2-a]pyrazin-3-yl]-3-(trifluoromethyl)pyrazol-1-yl]acetonitrile] | 0.1
N#CCn1cc(-c2cnc3c(Nc4ccc(C(=O)N5CC6(CNC6)C5)c(Cl)c4)nccn23)c(C(F)(F)F)n1 [Example 102, 2-[4-[8-[3-chloro-4-(2,6-diazaspiro[3.3]heptane-2-carbonyl)anilino]imidazo[1,2-a]pyrazin-3-yl]-3-(trifluoromethyl)pyrazol-1-yl]acetonitrile] | 0.18
NC1CCN(C(=O)c2ccc(Nc3nccn4c(-c5cn(CC(F)F)nc5C(F)(F)F)cnc34)cc2Cl)CC1 [Example 103, (4-aminopiperidin-1-yl)-[2-chloro-4-[[3-[1-(2,2-difluoroethyl)-3-(trifluoromethyl)pyrazol-4-yl]imidazo[1,2-a]pyrazin-8-yl]amino]phenyl] methanone] | 0.195
O=C(c1ccc(Nc2nccn3c(-c4cn(C(F)F)nc4C(F)(F)F)cnc23)cc1Cl)N1CCN(C(=O)[C@@H]2CCCN2)CC1 [Example 104, [2-chloro-4-[[3-[1-(difluoromethyl)-3-(trifluoromethyl)pyrazol-4-yl]imidazo[1,2-a]pyrazin-8-yl]amino]phenyl]-[4-[(2S)-pyrrolidine-2-carbonyl]piperazin-1-yl]methanone] | 0.227
NC12CC(NC(=O)c3ccc(Nc4nccn5c(-c6c[nH]nc6C(F)(F)F)cnc45)cc3Cl)(C1)C2 [Example 105, N-(3-amino-1-bicyclo[1.1.1]pentanyl)-2-chloro-4-[[3-[3-(trifluoromethyl)-1H-pyrazol-4-yl]imidazo[1,2-a]pyrazin-8-yl]amino]benzamide] | 1.56
C#CCn1cc(-c2cnc3c(Nc4ccc(C(=O)N[C@H](C)CN)c(CC)c4)nccn23)c(C(F)(F)F)n1 [Example 106, N-[(2R)-1-aminopropan-2-yl]-2-ethyl-4-[[3-[1-prop-2-ynyl-3-(trifluoromethyl)pyrazol-4-yl]imidazo[1,2-a]pyrazin-8-yl]amino]benzamide] | 0.222
CCNC(=O)c1ccc(Nc2nccn3c(-c4cn(CC#N)nc4C(F)(F)F)cnc23)cc1CC [Example 113, 4-[[3-[1-(cyanomethyl)-3-(trifluoromethyl)pyrazol-4-yl]imidazo[1,2-a]pyrazin-8-yl]amino]-N,2-diethylbenzamide] | 0.234
CCNC(=O)c1ccc(Nc2nccn3c(-c4cn(CCF)nc4C(F)(F)F)cnc23)cc1CC [Example 114, N,2-diethyl-4-[[3-[1-(2-fluoroethyl)-3-(trifluoromethyl)pyrazol-4-yl]imidazo[1,2-a]pyrazin-8-yl]amino]benzamide] | 0.329
C=CCn1cc(-c2cnc3c(Nc4ccc(C(=O)NCCOCCN)c(CC)c4)nccn23)c(C(F)F)n1 [Example 121, N-[2-(2-aminoethoxy)ethyl]-4-[[3-[3-(difluoromethyl)-1-prop-2-enylpyrazol-4-yl]imidazo[1,2-a]pyrazin-8-yl]amino]-2-ethylbenzamide] | 0.201

The next lines start with the values.

IC90 [µM] | Compound
0.239 | CCc1cc(Nc2nccn3c(-c4cn(CC(F)F)nc4C(F)(F)F)cnc23)ccc1C(=O)N[C@H](C)CN [Example 107, N-[(2R)-1-aminopropan-2-yl]-4-[[3-[1-(2,2-difluoroethyl)-3-(trifluoromethyl)pyrazol-4-yl]imidazo[1,2-a]pyrazin-8-yl]amino]-2-ethylbenzamide]
0.302 | C=CCn1cc(-c2cnc3c(Nc4ccc(C(=O)N[C@H](C)CN)c(CC)c4)nccn23)c(C(F)(F)F)n1 [Example 108, N-[(2R)-1-aminopropan-2-yl]-2-ethyl-4-[[3-[1-prop-2-enyl-3-(trifluoromethyl)pyrazol-4-yl]imidazo[1,2-a]pyrazin-8-yl]amino]benzamide]
0.333 | CCc1cc(Nc2nccn3c(-c4cn(CC#N)nc4C(F)(F)F)cnc23)ccc1C(=O)N[C@H](C)CN [Example 109, N-[(2R)-1-aminopropan-2-yl]-4-[[3-[1-(cyanomethyl)-3-(trifluoromethyl)pyrazol-4-yl]imidazo[1,2-a]pyrazin-8-yl]amino]-2-ethylbenzamide]
0.506 | CCc1cc(Nc2nccn3c(-c4cn(CCF)nc4C(F)(F)F)cnc23)ccc1C(=O)N[C@H](C)CN [Example 110, N-[(2R)-1-aminopropan-2-yl]-2-ethyl-4-[[3-[1-(2-fluoroethyl)-3-(trifluoromethyl)pyrazol-4-yl]imidazo[1,2-a]pyrazin-8-yl]amino]benzamide]
0.997 | O=C(c1ccc(Nc2nccn3c(-c4c[nH]nc4C(F)(F)F)cnc23)cc1Cl)N1CC2(CNC2)C1 [Example 111, [2-chloro-4-[[3-[3-(trifluoromethyl)-1H-pyrazol-4-yl]imidazo[1,2-a]pyrazin-8-yl]amino]phenyl]-(2,6-diazaspiro[3.3]heptan-2-yl)methanone]
0.231 | C#CCn1cc(-c2cnc3c(Nc4ccc(C(=O)NCC)c(CC)c4)nccn23)c(C(F)(F)F)n1 [Example 112, N,2-diethyl-4-[[3-[1-prop-2-ynyl-3-(trifluoromethyl)pyrazol-4-yl]imidazo[1,2-a]pyrazin-8-yl]amino]benzamide]
0.251 | O=C(c1ccc(Nc2nccn3c(-c4cn(CC(F)F)nc4C(F)(F)F)cnc23)cc1Cl)N1CCN(C(=O)[C@@H]2CCCN2)CC1 [Example 115, [2-chloro-4-[[3-[1-(2,2-difluoroethyl)-3-(trifluoromethyl)pyrazol-4-yl]imidazo[1,2-a]pyrazin-8-yl]amino]phenyl]-[4-[(2S)-pyrrolidine-2-carbonyl]piperazin-1-yl]methanone]
0.109 | O=C(c1ccc(Nc2nccn3c(-c4cn(CC(F)F)nc4C(F)(F)F)cnc23)cc1Cl)N1CCNCC1 [Example 120, [2-chloro-4-[[3-[1-(2,2-difluoroethyl)-3-(trifluoromethyl)pyrazol-4-yl]imidazo[1,2-a]pyrazin-8-yl]amino]phenyl]-piperazin-1-ylmethanone]
0.208 | CCc1cc(Nc2nccn3c(-c4cn(CC(F)F)nc4C(F)F)cnc23)ccc1C(=O)NCCOCCN [Example 122, N-[2-(2-aminoethoxy)ethyl]-4-[[3-[1-(2,2-difluoroethyl)-3-(difluoromethyl)pyrazol-4-yl]imidazo[1,2-a]pyrazin-8-yl]amino]-2-ethylbenzamide]
